# Assay results as given in patent US11542293B2, “Sting modulator compounds, and methods of making and using” (Takeda Pharmaceutical Company Limited, priority 2017, dated 2023).
# Where two headings read alike, the source gives them in different places.
# Assays:
# [1] = tested on: THP1-Dual cells (ISG54 promoter Lucia luciferase reporter); assay: THP-1 Dual Lucia Reporter Gene Assay; assay type: cell-based, human; conditions: Lucia luciferase signal induction, 20 hours at 37° C., read-out: Cellular THP 1 EC50
# Procedure: THP1-Dual™ cells (InvivoGen #thpd-nfis) were derived from the human THP-1 monocyte cell line by stable integration of the Lucia luciferase gene, a secreted luciferase reporter gene, under the control of an ISG54 (interferon-stimulated gene) minimal promoter in conjunction with five interferon (IFN)-stimulated response elements. […] The cell plates were dosed with 62.5 nL of the testing compounds, and then incubated at 37° C. for 20 hours. At the end of the incubation, 15 μL/well of the QUANTI-Luc™ (InvivoGen #rep-q1c1) were added, and luminescence was measured immediately using the LeadSeeker.
# Compound concentration versus percent signal induction curves were fitted to generate EC50 values.
# [2] = target: Human STING (residues 140-379, H232R) (Homo sapiens (Human), UniProt Q86WV6, H232R); assay: Human STING TR-FRET Assay; conditions: read-out: Enz-TR-Fret IC50, fluorescein labeled ligand 100 nM, STING protein 100 nM, 60 minutes at rt
# Human STING (residues 140-379, H232R), sequence (Q86WV6 140-379 H232R): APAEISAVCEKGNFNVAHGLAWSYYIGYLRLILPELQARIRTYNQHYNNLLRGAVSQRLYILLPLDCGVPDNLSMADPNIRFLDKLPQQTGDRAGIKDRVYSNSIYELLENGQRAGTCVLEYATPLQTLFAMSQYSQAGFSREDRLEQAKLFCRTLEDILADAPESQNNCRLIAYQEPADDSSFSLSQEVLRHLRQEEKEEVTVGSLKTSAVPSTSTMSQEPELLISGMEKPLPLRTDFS
# Procedure: The sequence was verified before recombinant protein expression using E. coli expression system.
# For expression, STING expression vector was transformed into BL21(DE3) cells. The expression was induced by adding IPTG and expressing in 16° C. for 20 hours.
# Biotinylation was confirmed by Mass Spectrometry analysis.
# Then 2 uL STING assay buffer containing STING protein (100 nM final) was added and the mixture was incubated at rt for 60 minutes. The plates were then read on a BMG PheraStar Plus reader (LanthaScreen module).
# For the assay method described above, test compound percent inhibition, at various concentrations, was calculated relative to untreated and DMSO only treated samples. Compound concentration versus percent inhibition curves were fitted to generate IC50 values.
Structure (SMILES),"EC50 ([1]; Homo sapiens, THP1-Dual, 20 h) [µM]",IC50 [2] [µM],EC50 [1] [µM]
"Nc1nc2c(ncn2[C@@H]2O[C@@H]3COP(=O)(S)O[C@@H]4[C@@H](COP(=O)(S)O[C@@H]2[C@@H]3O)C[C@@H](Oc2ccncn2)[C@@H]4F)c(=O)[nH]1 (single isomer, unassigned) [Compound I-39a]",1 to 10,< 1,–
"Nc1nc2c(ncn2[C@@H]2O[C@@H]3COP(=O)(S)O[C@@H]4[C@@H](COP(=O)(S)O[C@@H]2[C@@H]3O)C[C@@H](Oc2ccncn2)[C@@H]4F)c(=O)[nH]1 (single isomer, unassigned) [Compound I-39b]",–,< 1,< 1
"Nc1nc2c(ncn2[C@@H]2O[C@@H]3COP(=O)(O)O[C@@H]4[C@@H](COP(=O)(S)O[C@@H]2[C@@H]3O)C[C@@H](Nc2ncncn2)[C@@H]4F)c(=O)[nH]1 (single isomer, unassigned) [Compound I-42]",1 to 10,< 1,–
"Nc1nc2c(ncn2[C@@H]2O[C@@H]3COP(=O)(S)O[C@@H]4[C@@H](COP(=O)(O)O[C@@H]2[C@@H]3O)C[C@@H](Nc2ncncn2)[C@@H]4F)c(=O)[nH]1 (single isomer, unassigned) [Compound I-43]",1 to 10,–,–
"Nc1nc2c(ncn2[C@@H]2O[C@@H]3COP(=O)(S)O[C@@H]4[C@@H](COP(=O)(S)O[C@@H]2[C@@H]3O)C[C@@H](Nc2ncncn2)[C@@H]4F)c(=O)[nH]1 (single isomer, unassigned) [Compound I-45]",1 to 10,< 1,–
"Nc1nc2c(ncn2[C@@H]2O[C@@H]3COP(=O)(O)O[C@H]4C[C@H](Oc5ccncn5)C[C@@H]4COP(=O)(O)O[C@@H]2[C@@H]3O)c(=O)[nH]1 [Compound I-10, 2-amino-9-[(5R,7R,8R,12aR,14R,15aS,16R)-2,10,16-trihydroxy-2,10-dioxido-14-(pyrimidin-4-yloxy)decahydro-5,8-methanocyclopenta[1][1,3,6,9,11,2,10]pentaoxadiphosphacyclotetradecin-7-yl]-1,9-dihydro-6H-purin-6-one]",1 to 10,< 1,–
"Nc1nc2c(ncn2[C@@H]2O[C@@H]3COP(=O)(S)O[C@H]4C[C@H](Oc5ccncn5)C[C@@H]4COP(=O)(O)O[C@@H]2[C@@H]3O)c(=O)[nH]1 (stereo partly drawn) [Compound I-17, 2-amino-9-[(2S,5R,7R,8R,12aR,14R,15aS,16R)-10,16-dihydroxy-2,10-dioxido-14-(pyrimidin-4-yloxy)-2-sulfanyldecahydro-5,8-methanocyclopenta[1][1,3,6,9,11,2,10]pentaoxadiphosphacyclotetradecin-7-yl]-1,9-dihydro-6H-purin-6-one]",1 to 10,< 1,–
"Nc1nc2c(ncn2[C@@H]2O[C@@H]3COP(=O)(S)O[C@H]4C[C@H](Nc5ccncn5)C[C@@H]4COP(=O)(O)O[C@@H]2[C@@H]3O)c(=O)[nH]1 (stereo partly drawn) [Compound I-18, 2-amino-9-[(2S,5R,7R,8R,12aR,14R,15aS,16R)-10,16-dihydroxy-2,10-dioxido-14-(pyrimidin-4-ylamino)-2-sulfanyldecahydro-5,8-methanocyclopenta[1][1,3,6,9,11,2,10]pentaoxadiphosphacyclotetradecin-7-yl]-1,9-dihydro-6H-purin-6-one]",1 to 10,< 1,–
"Nc1nc2c(ncn2[C@@H]2O[C@@H]3COP(=O)(S)O[C@@H]4[C@@H](COP(=O)(O)O[C@@H]2[C@@H]3F)C[C@@H](Nc2ccncn2)[C@@H]4F)c(=O)[nH]1 (stereo partly drawn) [Compound I-21, 2-amino-9-[(2S,5R,7R,8S,12aR,14R,15S,15aR,16R)-15,16-difluoro-10-hydroxy-2,10-dioxido-14-(pyrimidin-4-ylamino)-2-sulfanyldecahydro-5,8-methanocyclopenta[1][1,3,6,9,11,2,10]pentaoxadiphosphacyclotetradecin-7-yl]-1,9-dihydro-6H-purin-6-one]",1 to 10,< 1,–
"Nc1nc2c(ncn2[C@@H]2O[C@@H]3COP(=O)(O)O[C@@H]4[C@@H](COP(=O)(S)O[C@@H]2[C@@H]3F)C[C@@H](Nc2ccncn2)[C@@H]4F)c(=O)[nH]1 (stereo partly drawn) [Compound I-24a, 2-amino-9-[(5R,7R,8S,10S,12aR,14R,15S,15aR,16R)-15,16-difluoro-2-hydroxy-2,10-dioxido-14-(pyrimidin-4-ylamino)-10-sulfanyldecahydro-5,8-methanocyclopenta[1][1,3,6,9,11,2,10]pentaoxadiphosphacyclotetradecin-7-yl]-1,9-dihydro-6H-purin-6-one]",1 to 10,< 1,–
"Nc1nc2c(ncn2[C@@H]2O[C@@H]3COP(=O)(O)O[C@H]4C[C@H](Nc5ncncn5)C[C@@H]4COP(=O)(O)O[C@@H]2[C@@H]3O)c(=O)[nH]1 [Compound I-27, 2-amino-9-[(5R,7R,8R,12aR,14R,15aS,16R)-2,10,16-trihydroxy-2,10-dioxido-14-(1,3,5-triazin-2-ylamino)decahydro-5,8-methanocyclopenta[1][1,3,6,9,11,2,10]pentaoxadiphosphacyclotetradecin-7-yl]-1,9-dihydro-6H-purin-6-one]",10 to 25,< 1,–
"Nc1nc2c(ncn2[C@@H]2O[C@@H]3COP(=O)(S)O[C@H]4C[C@H](Nc5ncncc5F)C[C@@H]4COP(=O)(S)O[C@@H]2[C@@H]3O)c(=O)[nH]1 (stereo partly drawn) [Compound I-34a, 2-amino-9-{(2S,5R,7R,8R,10S,12aR,14R,15aS,16R)-14-[(5-fluoropyrimidin-4-yl)amino]-16-hydroxy-2,10-dioxido-2,10-disulfanyldecahydro-5,8-methanocyclopenta[1][1,3,6,9,11,2,10]pentaoxadiphosphacyclotetradecin-7-yl}-1,9-dihydro-6H-purin-6-one]",< 1,< 1,–
"Nc1nc2c(ncn2[C@@H]2O[C@@H]3COP(=O)(S)O[C@H]4C[C@H](Nc5ncncc5F)C[C@@H]4COP(=O)(S)O[C@@H]2[C@@H]3O)c(=O)[nH]1 (stereo partly drawn) [Compound I-34b, 2-amino-9-{(2S,5R,7R,8R,10S,12aR,14R,15aS,16R)-14-[(5-fluoropyrimidin-4-yl)amino]-16-hydroxy-2,10-dioxido-2,10-disulfanyldecahydro-5,8-methanocyclopenta [1][1,3,6,9,11,2,10]pentaoxadiphosphacyclotetradecin-7-yl}-1,9-dihydro-6H-purin-6-one]",–,< 1,1 to 10
"Nc1nc2c(ncn2[C@@H]2O[C@@H]3COP(=O)(S)O[C@@H]4[C@@H](COP(=O)(S)O[C@@H]2[C@@H]3F)C[C@@H](Nc2ccncn2)[C@@H]4F)c(=O)[nH]1 (stereo partly drawn) [Compound I-38a, 2-amino-9-[(2S,5R,7R,8S,10S,12aR,14R,15S,15aR,16R)-15,16-difluoro-2,10-dioxido-14-(pyrimidin-4-ylamino)-2,10-disulfanyldecahydro-5,8-methanocyclopenta[1][1,3,6,9,11,2,10]pentaoxadiphosphacyclotetradecin-7-yl]-1,9-dihydro-6H-purin-6-one]",1 to 10,< 1,–
"Nc1nc2c(ncn2[C@@H]2O[C@@H]3COP(=O)(O)O[C@@H]4[C@@H](COP(=O)(O)O[C@@H]2[C@@H]3O)C[C@@H](Nc2ncncn2)[C@@H]4F)c(=O)[nH]1 [Compound I-40, 2-amino-9-[(5R,7R,8R,12aR,14R,15S,15aR,16R)-15-fluoro-2,10,16-trihydroxy-2,10-dioxido-14-(1,3,5-triazin-2-ylamino)decahydro-5,8-methanocyclopenta[1][1,3,6,9,11,2,10]pentaoxadiphosphacyclotetradecin-7-yl]-1,9-dihydro-6H-purin-6-one]",10 to 25,< 1,–
"Nc1nc2c(ncn2[C@@H]2O[C@@H]3COP(=O)(O)O[C@@H]4[C@@H](COP(=O)(O)O[C@@H]2[C@@H]3O)C[C@@H](Nc2ccncn2)[C@@H]4F)c(=O)[nH]1 [Compound I-46, 2-amino-9-[(5R,7R,8R,12aR,14R,15S,15aR,16R)-15-fluoro-2,10,16-trihydroxy-2,10-dioxido-14-(pyrimidin-4-ylamino)decahydro-5,8-methanocyclopenta[1][1,3,6,9,11,2,10]pentaoxadiphosphacyclotetradecin-7-yl]-1,9-dihydro-6H-purin-6-one]",10 to 25,< 1,–
